Source: ChEMBL document CHEMBL1201862, “PubChem BioAssay data set” (2004)
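Exposure lasted 48 hours, with cells grown in 96-well plates and compounds tested at five concentrations. Abbreviation: GI50, concentration required for 50% inhibition of growth.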 Active and inactive are the calls of the source. Cut-off read from the data, not from the text of the source: active = GI50 up to about 1.1 µM and inactive = higher.

Columns and labels:
Experiment in all cases: NCI anticancer screen, dose series, 48 h
[1] = system: A498
[2] = system: A549
[3] = system: CAKI-1
[4] = system: CCRF-CEM
[5] = system: COLO 205
[6] = system: DLD-1
[7] = system: DMS-114
[8] = system: DMS-273
[9] = system: EKVX
[10] = system: HCC 2998
[11] = system: HCT-116
[12] = system: HCT-15
[13] = system: HL-60
[14] = system: HOP-18
[15] = system: HOP-62
[16] = system: HOP-92
[17] = system: HT-29
[18] = system: IGROV-1
[19] = system: K562
[20] = system: KM12
[21] = system: LOX IMVI
[22] = system: M19-MEL
[23] = system: MCF7
[24] = system: MOLT-4
[25] = system: NCI-H226
[26] = system: NCI-H23
[27] = system: NCI-H460
[28] = system: NCI-H522
[29] = system: NCI/ADR-RES
[30] = system: OVCAR-3
[31] = system: OVCAR-4
[32] = system: OVCAR-5
[33] = system: OVCAR-8
[34] = system: RPMI-8226
[35] = system: SF-268
[36] = system: SF-295
[37] = system: SF-539
[38] = system: SK-MEL-28
[39] = system: SK-MEL-2
[40] = system: SK-MEL-5
[41] = system: SK-OV-3
[42] = system: SN12C
[43] = system: SNB-19
[44] = system: SNB-75
[45] = system: SW-620
[46] = system: U-251
[47] = system: UACC-257
[48] = system: UACC-62
[49] = system: UO-31
[50] = system: XF498
[51] = system: KM-20L2
[52] = system: Malme-3M
[53] = system: RXF 393
[54] = system: SNB-78

SMILES: CC(=O)Oc1c(OC(C)=O)c(-c2ccc(O)c(O)c2)c(O)c(O)c1-c1ccc(O)cc1
- GI50 [1]: > 100 µM (inactive)
- GI50 [2]: > 100 µM (inactive)
- GI50 [3]: > 100 µM (inactive)
- GI50 [4]: 61 µM (inactive)
- GI50 [5]: > 100 µM (inactive)
- GI50 [6]: > 100 µM (inactive)
- GI50 [7]: 21.3 µM (inactive)
- GI50 [8]: > 100 µM (inactive)
- GI50 [9]: > 100 µM (inactive)
- GI50 [10]: > 100 µM (inactive)
- GI50 [11]: > 100 µM (inactive)
- GI50 [12]: > 100 µM
- GI50 [13]: 54.2 µM (inactive)
- GI50 [14]: > 100 µM (inactive)
- GI50 [15]: > 100 µM (inactive)
- GI50 [16]: 30.2 µM (inactive)
- GI50 [17]: > 100 µM (inactive)
- GI50 [18]: 93.1 µM (inactive)
- GI50 [19]: 50.7 µM (inactive)
- GI50 [20]: > 100 µM (inactive)
- GI50 [21]: 29.9 µM (inactive)
- GI50 [22]: 24.4 µM (inactive)
- GI50 [23]: > 100 µM (inactive)
- GI50 [24]: > 100 µM (inactive)
- GI50 [25]: > 100 µM (inactive)
- GI50 [26]: > 100 µM (inactive)
- GI50 [27]: > 100 µM (inactive)
- GI50 [28]: 17.7 µM (inactive)
- GI50 [29]: > 100 µM (inactive)
- GI50 [30]: > 100 µM (inactive)
- GI50 [31]: > 100 µM (inactive)
- GI50 [32]: > 100 µM (inactive)
- GI50 [33]: 46.2 µM (inactive)
- GI50 [34]: > 100 µM (inactive)
- GI50 [35]: > 100 µM (inactive)
- GI50 [36]: > 100 µM (inactive)
- GI50 [37]: > 100 µM (inactive)
- GI50 [38]: > 100 µM (inactive)
- GI50 [39]: 29.4 µM (inactive)
- GI50 [40]: 19.7 µM (inactive)
- GI50 [41]: > 100 µM (inactive)
- GI50 [42]: > 100 µM (inactive)
- GI50 [43]: > 100 µM (inactive)
- GI50 [44]: 97.5 µM (inactive)
- GI50 [45]: 42.7 µM (inactive)
- GI50 [46]: > 100 µM (inactive)
- GI50 [47]: > 100 µM (inactive)
- GI50 [48]: 27.4 µM (inactive)
- GI50 [49]: > 100 µM (inactive)
- GI50 [50]: 82.2 µM (inactive)

SMILES: CC(C)CC/N=c1/cc2n(-c3ccc(Cl)cc3)c3ccccc3nc-2cc1Nc1ccc(Cl)cc1
- GI50 [1]: 15 µM (inactive)
- GI50 [2]: 15.3 µM (inactive)
- GI50 [3]: 10.4 µM (inactive)
- GI50 [4]: 3.72 µM (inactive)
- GI50 [5]: 1.95 µM (inactive)
- GI50 [6]: 1.97 µM (inactive)
- GI50 [7]: 1.94 µM (inactive)
- GI50 [8]: 14.6 µM (inactive)
- GI50 [9]: 6.12 µM (inactive)
- GI50 [10]: 3.86 µM (inactive)
- GI50 [11]: 3.77 µM (inactive)
- GI50 [12]: 3.42 µM
- GI50 [13]: 2.51 µM (inactive)
- GI50 [14]: 7.05 µM (inactive)
- GI50 [15]: 8.71 µM (inactive)
- GI50 [16]: 4.92 µM (inactive)
- GI50 [17]: 2.52 µM (inactive)
- GI50 [18]: 3.13 µM (inactive)
- GI50 [19]: 2.96 µM (inactive)
- GI50 [51]: 1.34 µM (inactive)
- GI50 [20]: 4.3 µM (inactive)
- GI50 [21]: 2.89 µM (inactive)
- GI50 [22]: 6.89 µM (inactive)
- GI50 [23]: 5.36 µM (inactive)
- GI50 [24]: 2.16 µM (inactive)
- GI50 [52]: 11.9 µM (inactive)
- GI50 [25]: 6.25 µM (inactive)
- GI50 [26]: 3.43 µM (inactive)
- GI50 [27]: 4.92 µM (inactive)
- GI50 [28]: 2.11 µM (inactive)
- GI50 [29]: 10.1 µM (inactive)
- GI50 [30]: 2 µM (inactive)
- GI50 [31]: 2.65 µM (inactive)
- GI50 [32]: 12.4 µM (inactive)
- GI50 [33]: 7.78 µM (inactive)
- GI50 [34]: 2.22 µM (inactive)
- GI50 [53]: 3.37 µM (inactive)
- GI50 [35]: 27.5 µM (inactive)
- GI50 [36]: 11.9 µM (inactive)
- GI50 [37]: 16 µM (inactive)
- GI50 [38]: 15.6 µM (inactive)
- GI50 [39]: 3.96 µM (inactive)
- GI50 [40]: 12.7 µM (inactive)
- GI50 [41]: 18.1 µM (inactive)
- GI50 [42]: 9.27 µM (inactive)
- GI50 [43]: 32.3 µM (inactive)
- GI50 [44]: 9.75 µM (inactive)
- GI50 [54]: 15.5 µM (inactive)
- GI50 [45]: 6.44 µM (inactive)
- GI50 [46]: 8.67 µM (inactive)
- GI50 [47]: 7.6 µM (inactive)
- GI50 [48]: 5.52 µM (inactive)
- GI50 [49]: 5.56 µM (inactive)
- GI50 [50]: 6.64 µM (inactive)
